According to patent US20210100826A1 (UNIVERSITY HOSPITAL CLEVELAND MEDICAL CENTER, priority 2017, published 2021):
Where “and” joins values, the source holds several entries; their conditions need not be identical. Equal values may be shown once.

Assays:
[1] = molecular target: T1, cloned P2X7 ATP-activated channel (human P2RX7 gene expressed in HEK293 cells) (Homo sapiens, UniProt Q99572); assay: Electrochemical patch clamp assay of P2X7 receptor activation (agonist mode, QPatch HT); type: cell-based; conditions: for Individual Data Points (% Activation): single cells; for EC50: whole-cell patch clamp, holding voltage −80 mV, room temperature; for decrease in EC50 when compared to BzBz-ATP / decrease in EC50 when compared to native ATP: ratio of EC50 values
T1 construct: HEK293 cells were stably transfected with the appropriate ion channel cDNA encoding the pore-forming channel subunit; expressed in transfected cells
T1 sequence (Q99572 1-595): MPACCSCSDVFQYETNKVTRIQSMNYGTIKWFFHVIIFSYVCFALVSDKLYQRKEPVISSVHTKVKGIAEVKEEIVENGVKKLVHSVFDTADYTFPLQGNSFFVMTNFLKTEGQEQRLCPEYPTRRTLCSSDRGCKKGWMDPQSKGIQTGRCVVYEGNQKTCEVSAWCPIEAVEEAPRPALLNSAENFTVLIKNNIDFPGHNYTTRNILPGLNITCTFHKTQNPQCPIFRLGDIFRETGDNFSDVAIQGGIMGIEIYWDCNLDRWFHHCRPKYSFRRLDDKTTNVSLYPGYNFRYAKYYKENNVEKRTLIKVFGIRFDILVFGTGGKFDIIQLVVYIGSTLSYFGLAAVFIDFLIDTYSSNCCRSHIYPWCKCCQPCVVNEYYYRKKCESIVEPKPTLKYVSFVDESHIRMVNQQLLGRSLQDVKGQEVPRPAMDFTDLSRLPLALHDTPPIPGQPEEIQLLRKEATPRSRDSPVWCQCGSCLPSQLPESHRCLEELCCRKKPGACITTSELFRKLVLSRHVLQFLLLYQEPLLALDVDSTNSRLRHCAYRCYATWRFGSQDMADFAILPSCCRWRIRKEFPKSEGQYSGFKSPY

[2] = system: DMBA/TPA-induced skin papillomas and squamous spindle-cell carcinomas; assay: Mouse two-step DMBA/TPA skin neoplasia model, local co-treatment with BzBzATP; type: in vivo
Description: Experiments were performed to test the hypothesis that activation of the P2X7 receptor could inhibit development of epidermal neoplasia. These experiments utilized the mouse two-step DMBA/TPA skin neoplasia model, which involves tumor initiation by local treatment with DMBA, followed by tumor promotion by local treatment with TPA. Agarwal et al, “Inhibitory effect of 18beta-glycyrrhetinic acid on 12-O-tetradecanoyl phorbol-13-acetate-induced cutaneous oxidative, stress and tumor promotion in mice” Redox Rep 10:151-157 (2005); and Guo et al, “Disruption of EphA2 receptor tyrosine kinase leads to increased susceptibility to carcinogenesis in mouse skin” Cancer Res 66:7050-7058 (2006). Mice had their dorsal skin shaved, and DMBA was applied once by topical application onto the shaved dorsal skin. TPA treatment by topical application onto the shaved dorsal skin was started one week later and continued twice a week for 12 weeks.
Animals were divided into three groups: Control mice (n=15) that had their back shaved and were treated only with the vehicle; DMBA/TPA-treated mice (n=15); and DMBA/TPA-treated mice that were co-treated with BzBzATP twice a week from week −2 (i.e. two weeks prior to DMBA) (n=14). All treatments were applied locally on the shaved dorsal skin. Papilloma development was monitored weekly from week 5 to 12 after the DMBA. Endpoints were percent animals with at least one papilloma; number of papilloma per animal; and mean papilloma size (e.g., millimeters of the largest lesion dimension). None of the animals in the control group had developed papillomas.
To evaluate the effects of BzBzATP, changes in skin lesions in the DMBA/TPA and DMBA/TPA+BzBzATP groups were compared relative to the length of treatment. Since formation of papillomas and cancerous lesions was time-related (i.e., for example, a marked cut-off occurs between weeks 13-14; see, FIG. 4A), data were analyzed separately for weeks 0-12 and weeks 14-28.

[3] = UV radical generation activity; type: physicochemical
P2X7 = molecular target: T2, P2X7 (Homo sapiens, UniProt Q99572); conditions: stated without test; read-out: EC50 as P2X7 agonist; cited from earlier work
T2 sequence (Q99572 1-595): T1 sequence (Q99572 1-595)

[4] = week 10, DMBA/TPA+BzBzATP group
[5] = week 12, DMBA/TPA+BzBzATP group
[6] = week 28, DMBA/TPA+BzBzATP group

For “2′,3′-0-(4-benzoylbenzoyl)-adenosine 5′-triphosphate [BzBzATP, reference compound]”, which “P2X7 receptor activation efficacy, comparison in words” value [1] is on record?
Its value is “slight improvement of receptor activation efficacy”.

And the “Mean % P2X7 Activation” value ([1]; Conc 1 μM)?
Its value is 0.0%.

And the “Individual Data Points (% Activation)” value ([1]; Conc 1 μM)?
Its value is 0.1% and 0.0% and −0.2%.

And the “Mean % P2X7 Activation” value ([1]; Conc 10 μM)?
Its value is 6.7%.

And the “Individual Data Points (% Activation)” value ([1]; Conc 10 μM)?
The value was 2.2% and 14.9% and 2.9%.

And the “Mean % P2X7 Activation” value ([1]; Conc 100 μM)?
The value was 16.9%.

What about the “Individual Data Points (% Activation)” value ([1]; Conc 100 μM) of the same molecule?
The value was 7.2% and 29.6% and 13.8%.

What about the “Individual Data Points (% Activation)” value ([1]; Conc 200 μM) of the same molecule?
Its value is 34.8% and 41.8% and 39.4%.

And the “Mean % P2X7 Activation” value ([1]; Conc 500 μM)?
Its value is 100.0%.

And the “Individual Data Points (% Activation)” value ([1]; Conc 500 μM)?
Its value is 100.0%.

And the EC50 [1]?
The EC50 was 218 µM.

What about the “TUNEL staining of papilloma tissue” value ([2]; biopsy at week 10, basal/parabasal regions) of the same molecule?
The value was “intense TUNEL staining”.

And the “decrease of the mean number of papillomas per animal” value ([2]; versus DMBA/TPA group)?
Its value is “about 25%”.

And the “decrease of the mean papilloma size” value ([2]; versus DMBA/TPA group)?
Its value is “about 45%”.

What about the “proportion of living animals with cancerous lesions >200 mm^3” value ([2]; versus DMBA/TPA group) of the same molecule?
The value was “differences did not reach statistical significance”.

What about the “proportion of living animals having a papilloma” value ([2]; week 5, DMBA/TPA+BzBzATP group) of the same molecule?
The value was 48±12%.

And the “animals having at least one papilloma” value ([2]; week 6, DMBA/TPA+BzBzATP group)?
The value was 53.8%.

What about the “papillomas per animal (mean±SEM)” value [2, 4] of the same molecule?
Its value is 1.23±0.34.

What about the “papillomas per living animal (mean±SD)” value [2, 4] of the same molecule?
The value was 1.2±0.4.

What about the “mean papilloma size per animal (mean±SEM)” value [2, 5] of the same molecule?
Its value is 3.46±0.73 mm.

And the “mean total papillomas size per animal (mean±SD)” value [2, 5]?
The value was 3.4±1.0 mm.

And the “animals that developed at least one skin papilloma” value ([2]; week 12, DMBA/TPA+BzBzATP group, local on dorsal skin twice a week)?
Its value is 78%.

And the “proportion of living animals with cancerous lesions” value [2, 6]?
The value was 43±9%.

What about the “proportion of living animals with cancerous lesions >10 mm^3” value [2, 6] of the same molecule?
Its value is 16±4%.

What about the “UV radical generation activity” value [3] of the same molecule?
The value was “high degree of UV radical generation activity”.

What about the EC50 (P2X7) of the same molecule?
The EC50 was roughly 50 µM.

With `Nc1ncnc2c1ncn2[C@@H]1O[C@H](COP(=O)(O)OP(=O)(O)OP(=O)(O)O)[C@@H](OC(=O)c2cccc(Oc3ccccc3)c2)[C@H]1O` [ATP-(3-phenoxy)benzoyl, 3-phenoxybenzoyl-ATP] as the molecule, how does the “Mean % P2X7 Activation” value ([1]; Conc 1 μM) read?
The value was 12.3%.

And the “Individual Data Points (% Activation)” value ([1]; Conc 1 μM)?
Its value is 7.0% and 45.4% and 6.7% and −9.7%.

And the “Mean % P2X7 Activation” value ([1]; Conc 10 μM)?
The value was 74.7%.

What about the “Individual Data Points (% Activation)” value ([1]; Conc 10 μM) of the same molecule?
The value was 36.6% and 167.5% and 39.7% and 54.9%.

And the “Mean % P2X7 Activation” value ([1]; Conc 100 μM)?
Its value is 186.3%.

What about the “Individual Data Points (% Activation)” value ([1]; Conc 100 μM) of the same molecule?
The value was 85.6% and 284.3% and 136.9% and 238.4%.

And the “Mean % P2X7 Activation” value ([1]; Conc 500 μM)?
The value was 320.8%.

And the “Individual Data Points (% Activation)” value ([1]; Conc 500 μM)?
Its value is 346.4% and 357.0% and 209.5% and 370.2%.

What about the “decrease in EC50 when compared to BzBz-ATP” value (“decrease … to BzBz-ATP” below) [1] of the same molecule?
The value was roughly 445%.

And the “decrease in EC50 when compared to native ATP” value (from here on “decrease … to native ATP”) [1]?
The value was roughly 738%.

What about the EC50 [1] of the same molecule?
Its EC50 is 49.1 µM.

Which “UV radical generation activity” value [3] does the source give for `Nc1ncnc2c1ncn2[C@@H]1O[C@H](COP(=O)(O)OP(=O)(O)OP(=O)(O)O)[C@@H](OC(=O)/C=C/c2ccccc2)[C@H]1O` [cinnamoyl-ATP] here?
The value was “low or no UV radical generation activity”.

For `Nc1ncnc2c1ncn2[C@@H]1O[C@H](COP(=O)(O)OP(=O)(O)OP(=O)(O)O)[C@@H](O)[C@H]1O` [NaATP, adenosine triphosphate, reference compound], which “Mean % P2X7 Activation” value ([1]; Conc 300 μM) is on record?
The value was 40.9%.

What about the “Mean % P2X7 Activation” value ([1]; Conc 750 μM) of the same molecule?
The value was 75.4%.

What about the EC50 [1] of the same molecule?
The EC50 was 363 µM.

What about the EC50 (P2X7) of the same molecule?
The EC50 was roughly 100 µM.

With `CCCCCCCCCCCC(=O)O[C@H]1[C@@H](O)[C@H](n2cnc3c(N)ncnc32)O[C@@H]1COP(=O)(O)OP(=O)(O)OP(=O)(O)O` [ATP-lauroyl, lauroyl-ATP] as the molecule, how does the “Mean % P2X7 Activation” value ([1]; Conc 1 μM) read?
The value was 8.1%.

What about the “Individual Data Points (% Activation)” value ([1]; Conc 1 μM) of the same molecule?
The value was −2.1% and 26.6% and −0.3%.

And the “Mean % P2X7 Activation” value ([1]; Conc 10 μM)?
Its value is 29.9%.

And the “Individual Data Points (% Activation)” value ([1]; Conc 10 μM)?
The value was 45.1% and 18.1% and 26.4%.

What about the “Mean % P2X7 Activation” value ([1]; Conc 100 μM) of the same molecule?
Its value is 42.0%.

And the “Individual Data Points (% Activation)” value ([1]; Conc 100 μM)?
The value was 38.7% and 64.8% and 22.6%.

And the “Mean % P2X7 Activation” value ([1]; Conc 500 μM)?
The value was 96.9%.

What about the “Individual Data Points (% Activation)” value ([1]; Conc 500 μM) of the same molecule?
Its value is 98.3% and 124.6% and 67.7%.

What about the “decrease … to BzBz-ATP” value [1] of the same molecule?
Its value is roughly 350%.

And the “decrease … to native ATP” value [1]?
Its value is roughly 580%.

What about the EC50 [1] of the same molecule?
Its EC50 is 62.4 µM.

What about the EC50 ([1]; listed as lauroyl-ATP) of the same molecule?
Its EC50 is roughly 62 µM.

And the “UV radical generation activity” value [3]?
Its value is “low or no UV radical generation activity”.

What about the “dissolution in a solution with 0.3% DMSO” value of the same molecule?
The value was “not totally dissolved”.

With `Nc1ncnc2c1ncn2[C@@H]1O[C@H](COP(=O)(O)OP(=O)(O)OP(=O)(O)O)[C@@H](OC(=O)c2ccccc2)[C@H]1O` [3′-O-(Benzoyl) Adenosine-5-Triphosphate, 3′-O-(benzoyl)-adenosine-5-triphosphate] as the molecule, how does the “Mean % P2X7 Activation” value ([1]; Conc 1 μM) read?
Its value is 8.3%.

And the “Individual Data Points (% Activation)” value ([1]; Conc 1 μM)?
Its value is 15.8% and 9.7% and −0.7%.

What about the “Mean % P2X7 Activation” value ([1]; Conc 10 μM) of the same molecule?
Its value is 43.0%.

And the “Individual Data Points (% Activation)” value ([1]; Conc 10 μM)?
The value was 65.4% and 42.3% and 21.3%.

What about the “Mean % P2X7 Activation” value ([1]; Conc 100 μM) of the same molecule?
Its value is 94.5%.

What about the “Individual Data Points (% Activation)” value ([1]; Conc 100 μM) of the same molecule?
The value was 102.5% and 82.3% and 98.7%.

What about the “Mean % P2X7 Activation” value ([1]; Conc 500 μM) of the same molecule?
Its value is 129.2%.

And the “Individual Data Points (% Activation)” value ([1]; Conc 500 μM)?
The value was 148.4% and 129.1% and 110.2%.

What about the “decrease … to BzBz-ATP” value [1] of the same molecule?
The value was roughly 910%.

What about the “decrease … to native ATP” value [1] of the same molecule?
Its value is roughly 1511%.

And the EC50 [1]?
Its EC50 is 24 µM.

What about the “UV radical generation activity” value [3] of the same molecule?
The value was “low or no UV radical generation activity”.
